Columns and labels:
TYK2 = TYK2 (Homo sapiens (Human), UniProt P29597); assay: Tyk2 radioactive kinase assay; assay type: biochemical; conditions: ATP 10 μM
Procedure, shortened: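 Recombinant human TYK2 (Invitrogen) was mixed with 20 μM peptide substrate in a buffer of 20 mM Hepes pH 7.5, 10 mM MgCl2, 1 mM EGTA, 0.02% Brij35, 0.02 mg/mL BSA, 0.1 mM […], 2 mM DTT and 1% DMSO, and compounds in DMSO were added. Adding ^33P-ATP (10 μM ATP) started the reaction, which ran 120 min at room temperature. Mixtures were then spotted onto P81 ion-exchange paper, washed thoroughly in 0.75% phosphoric acid, and counted for radioactivity.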

JAK2 = JAK2 (Homo sapiens (Human), UniProt O60674); assay: JAK2 radioactive kinase assay; assay type: biochemical; conditions: ATP 10 μM
JAK2, sequence (O60674 whole entry): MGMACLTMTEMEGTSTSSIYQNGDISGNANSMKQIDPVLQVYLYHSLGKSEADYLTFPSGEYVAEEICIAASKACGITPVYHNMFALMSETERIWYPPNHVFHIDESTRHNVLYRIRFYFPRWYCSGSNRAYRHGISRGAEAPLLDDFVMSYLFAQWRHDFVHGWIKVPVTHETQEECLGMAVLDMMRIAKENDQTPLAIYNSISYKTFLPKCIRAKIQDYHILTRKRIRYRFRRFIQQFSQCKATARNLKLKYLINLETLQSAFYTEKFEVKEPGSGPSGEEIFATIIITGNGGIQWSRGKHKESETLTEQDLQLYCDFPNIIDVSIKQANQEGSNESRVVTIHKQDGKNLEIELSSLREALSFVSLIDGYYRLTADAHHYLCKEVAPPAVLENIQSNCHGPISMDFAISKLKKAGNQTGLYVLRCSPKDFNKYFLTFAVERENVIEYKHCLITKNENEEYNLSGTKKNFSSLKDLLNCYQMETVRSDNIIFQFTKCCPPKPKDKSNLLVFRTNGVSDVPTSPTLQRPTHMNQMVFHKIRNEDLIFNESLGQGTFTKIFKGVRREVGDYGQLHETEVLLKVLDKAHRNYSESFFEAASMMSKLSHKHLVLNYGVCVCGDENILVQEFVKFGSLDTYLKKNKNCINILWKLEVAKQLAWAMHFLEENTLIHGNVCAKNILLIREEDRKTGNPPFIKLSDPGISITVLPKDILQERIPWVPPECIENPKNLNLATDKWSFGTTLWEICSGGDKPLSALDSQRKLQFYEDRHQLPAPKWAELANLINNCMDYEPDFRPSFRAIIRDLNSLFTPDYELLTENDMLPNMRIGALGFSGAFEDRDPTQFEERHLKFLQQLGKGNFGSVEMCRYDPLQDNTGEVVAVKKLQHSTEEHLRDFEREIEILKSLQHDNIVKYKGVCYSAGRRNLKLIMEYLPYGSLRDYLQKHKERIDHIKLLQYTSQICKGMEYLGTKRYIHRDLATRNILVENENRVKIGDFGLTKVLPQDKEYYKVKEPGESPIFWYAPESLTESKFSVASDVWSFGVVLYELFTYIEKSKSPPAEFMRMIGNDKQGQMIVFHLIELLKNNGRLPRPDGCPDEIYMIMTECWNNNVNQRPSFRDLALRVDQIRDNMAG
Procedure, shortened: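 Radiometric assay in Hepes pH 7.5, MgCl2, EGTA, Brij35, BSA, DTT, 1% DMSO, with 10 μM [33P]ATP, 120 min at room temp; P81 paper capture and counting. […]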

[1] = system: Tyk2-pSTAT4 (IL-12 induced pSTAT4); assay: IL-12 induced pSTAT4 in human PBMC; assay type: cell-based; conditions: 1.7 ng/mL IL-12, 30 minutes
Protocol: (§1) Human PBMC are isolated from buffy coat and are stored frozen for assays as needed. Cells for assay are thawed and resuspended in complete media containing serum, then cells are diluted to 1.67 E6 cells/ml so that 120 ul per well is 200,000 cells. 15 ul of compound or DMSO is added to the well at the desired concentrations and incubated at 1 hr at 37 C. 15 ul of stimulus (final concentration of 1.7 ng/mL IL-12) is added for 30 minutes prior to pSTAT4 and total STAT4 analysis using cell lysates prepared and analyzed by MSD reagents as per manufacturer protocol. The final DMSO concentration of compound in the assay is 0.1%.

[2] = system: JAK2-pSTAT5 (GM-CSF induced pSTAT5); assay: GM-CSF induced pSTAT5 in human PBMC; assay type: cell-based; conditions: 5 ng/mL GM-CSF
Protocol: as §1
Cells are prepared for analysis as in the above procedure and 15 ul of GM-CSF (final concentration 5 ng/mL) is added for 20 minutes prior to pSTAT5 and total STAT5 analysis using cell lysates prepared and analyzed by MSD reagents as per manufacturer protocol. The final DMSO concentration of compound in the assay is 0.1%.

TYK2, sequence (P29597 whole entry): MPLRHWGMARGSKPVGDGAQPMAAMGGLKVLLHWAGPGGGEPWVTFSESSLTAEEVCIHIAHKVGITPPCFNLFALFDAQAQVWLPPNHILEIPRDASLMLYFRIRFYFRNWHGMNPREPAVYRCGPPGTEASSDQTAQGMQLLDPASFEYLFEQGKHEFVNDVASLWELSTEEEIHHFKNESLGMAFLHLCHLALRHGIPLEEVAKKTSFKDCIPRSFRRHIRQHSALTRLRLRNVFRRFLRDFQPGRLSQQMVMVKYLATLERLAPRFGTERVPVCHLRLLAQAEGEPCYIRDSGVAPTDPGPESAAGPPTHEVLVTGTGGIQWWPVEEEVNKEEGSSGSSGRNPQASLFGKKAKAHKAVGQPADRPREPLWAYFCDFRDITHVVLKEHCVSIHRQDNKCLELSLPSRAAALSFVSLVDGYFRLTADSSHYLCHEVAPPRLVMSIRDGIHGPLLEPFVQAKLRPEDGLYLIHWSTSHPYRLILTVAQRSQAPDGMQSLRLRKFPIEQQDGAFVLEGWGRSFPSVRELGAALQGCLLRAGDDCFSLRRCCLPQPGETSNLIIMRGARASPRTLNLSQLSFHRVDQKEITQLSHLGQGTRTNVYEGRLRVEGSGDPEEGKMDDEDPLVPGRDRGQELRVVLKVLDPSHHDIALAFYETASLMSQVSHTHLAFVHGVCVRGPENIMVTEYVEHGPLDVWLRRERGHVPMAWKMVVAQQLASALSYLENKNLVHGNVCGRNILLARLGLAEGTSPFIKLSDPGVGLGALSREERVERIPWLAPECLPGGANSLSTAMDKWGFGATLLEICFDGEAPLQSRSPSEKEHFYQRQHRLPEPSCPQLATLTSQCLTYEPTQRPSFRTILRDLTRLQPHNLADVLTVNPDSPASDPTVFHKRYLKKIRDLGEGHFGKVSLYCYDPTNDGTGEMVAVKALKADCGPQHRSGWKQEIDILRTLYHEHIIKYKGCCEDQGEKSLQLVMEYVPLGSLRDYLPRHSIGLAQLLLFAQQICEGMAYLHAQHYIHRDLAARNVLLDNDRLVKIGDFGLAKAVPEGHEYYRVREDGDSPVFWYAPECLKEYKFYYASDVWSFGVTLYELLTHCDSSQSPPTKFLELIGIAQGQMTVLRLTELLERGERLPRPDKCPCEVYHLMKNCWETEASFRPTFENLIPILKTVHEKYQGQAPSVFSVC

Structure (SMILES)	Ki (TYK2)	Ki (JAK2)	EC50 ([1]; Homo sapiens, PBMC, 0.5 h)	EC50 ([2]; Homo sapiens, PBMC, 20 min)	EC50 [1]	EC50 ([2]; 20 minutes)
[2H]C([2H])([2H])O[C@@H]1CN(c2ccn(-c3cc(-c4c(F)cccc4C#N)nc4c3C(=O)NC4)n2)C[C@@H]1O [I-223, 3-fluoro-2-(4-(3-((3S,4R)-3-hydroxy-4-(methoxy-d3)pyrrolidin-1-yl)-1H-pyrazol-1-yl)-5-oxo-6,7-dihydro-5H-pyrrolo[3,4-b]pyridin-2-yl)benzonitrile]	0.1 to 10 nM	10 to 100 nM	100 to 2000 nM	100 to 2000 nM	–	–
[2H]C1([2H])NC(=O)c2c(-n3ccc(N4CC[C@@H](O)C4)n3)cc(-c3c(F)cccc3C#N)nc21 [I-114, (R)-3-fluoro-2-(4-(3-(3-hydroxypyrrolidin-1-yl)-1H-pyrazol-1-yl)-5-oxo-6,7-dihydro-5H-pyrrolo[3,4-b]pyridin-2-yl-7,7-d2)benzonitrile]	0.1 to 10 nM	0.1 to 10 nM	30 to 100 nM	100 to 2000 nM	–	–
N#Cc1cccc(F)c1-c1cc(-c2ccn([C@@H]3COC[C@@H]3O)n2)c2c(n1)CNC2=O [I-234, 3-fluoro-2-(4-(1-((3R,4R)-4-hydroxytetrahydrofuran-3-yl)-1H-pyrazol-3-yl)-5-oxo-6,7-dihydro-5H-pyrrolo[3,4-b]pyridin-2-yl)benzonitrile]	10 to 100 nM	100 to 1000 nM	100 to 2000 nM	> 2000 nM	–	–
N#Cc1cccc(F)c1-c1cc(-n2ccc(N3CC[C@H](C#N)[C@@H](O)C3)n2)c2c(n1)CNC2=O [I-216, (3R,4R)-1-(1-(2-(2-cyano-6-fluorophenyl)-5-oxo-6,7-dihydro-5H-pyrrolo[3,4-b]pyridin-4-yl)-1H-pyrazol-3-yl)-3-hydroxypiperidine-4-carbonitrile]	0.1 to 10 nM	0.1 to 10 nM	–	–	30 to 100 nM	100 to 2000 nM
CN1CCN([C@H]2CCCN(c3ccn(-c4cc(-c5c(F)cccc5C#N)nc5c4C(=O)NC5)n3)C2)CC1 [I-155, (S)-3-fluoro-2-(4-(3-(3-(4-methylpiperazin-1-yl)piperidin-1-yl)-1H-pyrazol-1-yl)-5-oxo-6,7-dihydro-5H-pyrrolo[3,4-b]pyridin-2-yl)benzonitrile]	0.1 to 10 nM	10 to 100 nM	100 to 2000 nM	> 2000 nM	–	–
N#Cc1cccc(F)c1-c1cc(-n2ccc(N3CCC[C@H](O)C3)n2)c2c(n1)CNC2=O [I-70, (S)-3-fluoro-2-(4-(3-(3-hydroxypiperidin-1-yl)-1H-pyrazol-1-yl)-5-oxo-6,7-dihydro-5H-pyrrolo[3,4-b]pyridin-2-yl)benzonitrile]	0.1 to 10 nM	0.1 to 10 nM	100 to 2000 nM	100 to 2000 nM	–	–
N#Cc1cccc(F)c1-c1cc(-n2cc(F)c(N3CCC(O)C3)n2)c2c(n1)CNC2=O (stereo not shown) [I-185, 3-fluoro-2-(4-(4-fluoro-3-(3-hydroxypyrrolidin-1-yl)-1H-pyrazol-1-yl)-5-oxo-6,7-dihydro-5H-pyrrolo[3,4-b]pyridin-2-yl)benzonitrile]	0.1 to 10 nM	10 to 100 nM	100 to 2000 nM	100 to 2000 nM	–	–
CC1(C)[C@H](O)CCN1c1ccn(-c2cc(-c3c(F)cccc3C#N)nc3c2C(=O)NC3)n1 [I-204, (R)-3-fluoro-2-(4-(3-(3-hydroxy-2,2-dimethylpyrrolidin-1-yl)-1H-pyrazol-1-yl)-5-oxo-6,7-dihydro-5H-pyrrolo[3,4-b]pyridin-2-yl)benzonitrile]	0.1 to 10 nM	10 to 100 nM	30 to 100 nM	> 2000 nM	–	–
N#Cc1cccc(F)c1-c1cc(-n2ccc(N3CCC[C@@H](O)C3)n2)c2c(n1)CNC2=O [I-69, (R)-3-fluoro-2-(4-(3-(3-hydroxypiperidin-1-yl)-1H-pyrazol-1-yl)-5-oxo-6,7-dihydro-5H-pyrrolo[3,4-b]pyridin-2-yl)benzonitrile]	0.1 to 10 nM	10 to 100 nM	100 to 2000 nM	100 to 2000 nM	–	–
N#Cc1cccc(F)c1-c1cc(-n2ccc(N3CCC[C@H](C(=O)N4CCCC4)C3)n2)c2c(n1)CNC2=O [I-168, (S)-3-fluoro-2-(5-oxo-4-(3-(3-(pyrrolidine-1-carbonyl)piperidin-1-yl)-1H-pyrazol-1-yl)-6,7-dihydro-5H-pyrrolo[3,4-b]pyridin-2-yl)benzonitrile]	0.1 to 10 nM	0.1 to 10 nM	100 to 2000 nM	100 to 2000 nM	–	–

— patent US10781204B2, “TYK2 inhibitors and uses thereof” (Nimbus Lakshmi, Inc., priority 2015, dated 2020)
